Laboratory results published in US10071989B2, “Substituted cinnamamide derivative, preparation method and use thereof” (TASLY PHARMACEUTICAL GROUP CO., LTD., priority 2011, dated 2018).
Entries after “also recorded” stand apart in the source; their conditions may differ. Read-outs that look alike come from different tables or passages of the source. Marks after values point to notes of the source that are not given here.

Assays:
Type in all cases: in vivo
C57BL/6 mice [1] = experiment: Depression model test of anti-blepharoptosis caused by reserpine (akinesia, blepharoptosis, shell temperature); details: for Blepharoptosis, “out-of-circle” ratio and shell temperature after reserpine (effect in words): compared with the solvent control group; for Improving akinesia, blepharoptosis and shell temperature: ranking among the tested compounds (in words): within the experiment; for Degree of eye-closure: score 0-4 one hour after reserpine; for responders at 10 mg/kg: Mus musculus, po, 1 h, one hour after reserpine, 7.5 cm circle, 15-second observation, read-out: “out-of-circle” ratio; for Blepharoptosis, shell temperature and “out-of-circle” ratio compared with Compound I-1 (in words): compared with I-1, p<0.05, p<0.01
Protocol: 120 male C57BL/6 mice were randomly selected to observe the number of their autonomic activity. The mice was placed into the YLS-1A multi-functional mice autonomic activity recorder, and after 1 min of adaption, the activity of the mice was counted within a time period from the end of 1st min to 4th min. 96 mice with the number of autonomic activity between 70˜140 were screened out, divided randomly into 8 groups, and intragastrically administrated with the drug compounds at a dose listed in Table 3, one time daily for 7 days consecutively. The solvent control group was administrated with 2% Tween-80 aqueous solution in the same volume. Except the normal control group, 30 min after the last administration, each group was injected intraperitoneally with reserpine at a dose of 4 mg/kg. Next, akinesia, blepharoptosis and shell temperature were observed.
I Akinesia: one hour after intraperitoneal injection of reserpine, the mice were placed at the center of a circle with a diameter of 7.5 cm for a 15-second observation to calculate the “out-of-circle” ratio.
II Blepharoptosis: one hour after intraperitoneal injection of reserpine, the eye closure of mice was observed and scored by the following standard: eyelids open, 0; eyelids ¼ closed, 1; eyelids 2/4 closed, 2; eyelids ¾ closed, 3; eyelids closed completely, 4.
III Shell temperature: two hours after intraperitoneal injection of reserpine, the shell temperature of the abdomen of the mice was measured.
120 C57BL/6 mice were randomly selected to observe the number of their autonomic activity. The method was the same with that of Experiment 1. 100 mice with the number of autonomic activity between 70˜140 were screened out, divided randomly into 10 groups, and intragastrically administrated with the drug compounds at a dose listed in Table 4, one time daily for 7 days consecutively. The mice in the normal group and the solvent control group were administrated with 2% Tween-80 aqueous solution in the same volume. Except the normal control group, 30 min after the last administration, each group was injected intraperitoneally with reserpine at a dose of 4 mg/kg. Next, akinesia, blepharoptosis and shell temperature were observed. Observation method was the same with that of Experiment 1.

mice = experiment: Anti-depression effect in the tested models (overall conclusion); details: in the tested model at the tested dose
Text: Based on the aforesaid experiments, the following conclusion can be drawn: • 1.

C57BL/6 mice [2] = experiment: Forced swimming experiment in mice; details: for Immobility time in the forced swimming test in mice(s): 30 min after last administration, end of 2nd min to 6th min
Protocol: After 1˜2 days of adaptive feed, 80 male C57BL/6 mice, aged 6˜8 weeks and weighing 18˜22 g, were placed into the YLS-1A multi-functional mice autonomic activity recorder. After 1 min of adaption, the activity of the mice was counted within a time period from the end of 1st min to 4th min. 60 mice with the number of autonomic activity between 70˜140 were screened out, divided randomly into 6 groups, and intragastrically administrated with the drug compounds at a dose listed in Table 5, one time daily for 7 days consecutively. The solvent control group was administrated with 2% Tween-80 aqueous solution in the same volume. After the administration at 6th day, the mice were placed into a cylindrical aquarium with a water depth of 10 cm and 25° C. to force the mice to swim. After 15 min, the mice were taken out, dried and returned to the cage. 24 hours later, 30 min after the last intragastrical administration, the mice were placed into a glass bottle with a diameter of 10 cm, a height of 30 cm and a water depth of 10 cm, and the temperature of the water in the bottle was at 25° C. The mice were separated with an opaque partition, so as not to influence each other. After 2 min of adaption, an accumulated immobility time from the end of 2nd min to 6th min was recorded.

C57BL/6 mice [3] = experiment: Number of autonomic activity of mice (YLS-1A autonomic activity recorder); details: for Effect on autonomic activity of mice (in words): 10 mg/kg intragastric, one week, compared with the solvent control group; for Number of Autonomic activity (time): 10 mg/kg intragastric once daily, counted 30 min after administration at 6th day
Protocol: 110 mice were randomly selected to observe the number of their autonomic activity. The mice was placed into the YLS-1A multi-functional mice autonomic activity recorder, and after 1 min of adaption, the mice's activity was counted within a time period from the end of 1st min to 4th min. 96 mice with the number of autonomic activity between 70˜140 were screened out, divided randomly into 8 groups, and intragastrically administrated with the drug compounds at a dose listed in Table 1, one time daily for 7 days consecutively. The solvent control group was administrated with 2% Tween-80 aqueous solution in the same volume. All mice were placed into the autonomic activity recorder 30 min after administration at 6th day. After 1 min of adaption, the mice's activity was counted within a time period from the end of 1st min to 4th min.
(§1) 130 mice were randomly selected to observe the number of their autonomic activity. The method was the same with that of Experiment 1. 108 mice with the number of autonomic activity between 70˜140 were screened out, divided randomly into 9 groups, and intragastrically administrated with the drug compounds at a dose listed in Table 2, one time daily for 7 days consecutively. The solvent control group was administrated with 2% Tween-80 aqueous solution in the same volume. 30 min after administration at 6th day, the number of the autonomic activity of each mouse was observed. 30 min after administration at 7th day, the immobility time in tail suspension test was observed. The method was the same with that in Experiment 1.

C57BL/6 mice [4] = experiment: "Acquired despair" depression model of tail suspension test in mice; details: for Effect on immobility time in tail suspension test (in words): 10 mg/kg intragastric for 7 days, compared with the solvent control group
Protocol: 30 min after administration at 7th day, the mice was fixed on a sustainer with a rubberized cloth at 1 cm close to the end of the tail of mice, making the mice hanged upside down. The head of the mice was about 30 cm above the table and its sight was separated from the neighboring mouse with a plate. Usually, the mice might manage to struggle in hopes of overcoming the abnormal body position. […] The accumulated immobility time within 6 min of each mouse was observed, which was regarded as “despair time”.
as §1

[5] = 10 mg/kg, compared with I-1, p<0.05
[6] = Experiment 2, 10 mg/kg intragastric 7 days, reserpine 4 mg/kg i.p., abdomen, two hours after reserpine, ±SD
[7] = Experiment 2, 10 mg/kg intragastric 7 days, reserpine 4 mg/kg i.p., ±SD
[8] = Experiment 2, 10 mg/kg intragastric 7 days, reserpine 4 mg/kg i.p.

In the case of `CC(C)CNC(=O)/C=C/c1cc2c(c(C(F)(F)F)c1)OCO2` [Compound I-5, N-isobutyl-5′-trifluoromethyl-3′,4′-methylenedioxy cinnamamide], the “Blepharoptosis, “out-of-circle” ratio and shell temperature after reserpine (effect in words)” value (C57BL/6 mice [1]; 10 mg/kg intragastric 7 days) was “improved significantly; also recorded: antagonizing the decrease of shell temperature, akinesia and improving the degree of eye closure”, the “Degree of eye closure / blepharoptosis after reserpine compared with I-1 (in words)” value (C57BL/6 mice [1]; 10 mg/kg) was “reduced” and the ““out-of-circle” ratio after reserpine compared with I-1 (in words)” value (C57BL/6 mice [1]; [5]) was “increased markedly”. For the same compound, the “Improving akinesia, blepharoptosis and shell temperature: ranking among the tested compounds (in words)” value (from here on “Improving akinesia”) (C57BL/6 mice [1]; 10 mg/kg) was “best effect”, the “Change in the shell temperature (ΔT ° C.)” value (C57BL/6 mice [1]; Experiment 1, 10 mg/kg intragastric 7 days, reserpine 4 mg/kg i.p., abdomen, two hours after reserpine, ±SD) was 1.32 ± 0.16 °C and the Degree of eye-closure (C57BL/6 mice [1]; Experiment 1, 10 mg/kg intragastric 7 days, reserpine 4 mg/kg i.p., ±SD) was 0.42 ± 0.79**^ΔΔ. The responders at 10 mg/kg (C57BL/6 mice [1]; Experiment 1, 10 mg/kg intragastric 7 days, reserpine 4 mg/kg i.p.) was 92%, the “Anti-depression effect compared with the pharmacologic effect of I-1 (in words)” value (mice) was “increased to some degree” and the “Immobility time in the forced swimming test in mice(s)” value (C57BL/6 mice [2]; 5 mg/kg (low dose) intragastric once daily for 7 days) was 91.20 ± 43.09 s. The “Immobility time in the forced swimming test in mice(s)” value (C57BL/6 mice [2]; 10 mg/kg intragastric once daily for 7 days) was 78.58 ± 35.70 s, the “Dose dependence of the effect on immobility time in the forced swimming test” value (C57BL/6 mice [2]; 5 and 10 mg/kg) was “dose-dependent effect” and the “Effect on immobility time in the forced swimming test (in words)” value (C57BL/6 mice [2]; within the dosage range (5-10 mg/kg), compared with the solvent control group) was “shortening the immobility time; also recorded: shorten the immobility time”. The “Effect on autonomic activity of mice (in words)” value (“Effect on autonomic activity” for short) (C57BL/6 mice [3]) was “had no affect; also recorded: had no effect”, the “Number of Autonomic activity (time)” value (C57BL/6 mice [3]; Experiment 1, end of 1st min to 4th min) was 94.75 ± 23.98 time and the “Number of Autonomic activity (time)” value (C57BL/6 mice [3]; Experiment 2) was 99.40 ± 19.67 time. For the same compound, the “Effect on immobility time in tail suspension test (in words)” value (C57BL/6 mice [4]) was “remarkably reduce the immobility time; also recorded: reduce the immobility time of the mice in tail suspension test significantly; also recorded: significantly shorten the immobility time” and the “Effect on antagonizing immobility in tail suspension test compared with I-1 (in words)” value (C57BL/6 mice [4]; [5]) was “better effect”.

For `CCN(CC)C(=O)/C=C/c1cc2c(c(C(F)(F)F)c1)OCO2` [Compound I-9, N,N-diethyl-5′-trifluoromethyl-3′,4′-methylenedioxy cinnamamide], the “Blepharoptosis, “out-of-circle” ratio and shell temperature after reserpine (effect in words)” value (C57BL/6 mice [1]; 10 mg/kg intragastric 7 days) was “remarkably improve; also recorded: antagonizing the decrease of shell temperature, akinesia and improving the degree of eye closure”, the “Degree of eye closure / blepharoptosis after reserpine compared with I-1 (in words)” value (C57BL/6 mice [1]; 10 mg/kg) was “increased improvement” and the “Change in the shell temperature (T ° C.)” value (C57BL/6 mice [1]; [6]) was 28.70 ± 1.78 °C. For the same compound, the Degree of eye-closure (C57BL/6 mice [1]; [7]) was 1.80 ± 1.23, the responders at 10 mg/kg (C57BL/6 mice [1]; [8]) was 30% and the “Anti-depression effect compared with the pharmacologic effect of I-1 (in words)” value (mice) was “increased to some degree”. For the same compound, the “Effect on autonomic activity” value (C57BL/6 mice [3]) was “had no effect”, the “Number of Autonomic activity (time)” value (C57BL/6 mice [3]; Experiment 2) was 83.60 ± 22.68 time and the “Effect on immobility time in tail suspension test (in words)” value (C57BL/6 mice [4]) was “reduce the immobility time of the mice in tail suspension test significantly; also recorded: significantly shorten the immobility time”.

For `CC(C)CNC(=O)CCc1cc2c(c(C(F)(F)F)c1)OCO2` [Compound I-11, N-isobutyl-3-(5′-trifluoromethyl-3′,4′-methylenedioxyphenyl)-propionamide], the “Blepharoptosis, “out-of-circle” ratio and shell temperature after reserpine (effect in words)” value (C57BL/6 mice [1]; 10 mg/kg intragastric 7 days) was “remarkably improve; also recorded: antagonizing the decrease of shell temperature, akinesia and improving the degree of eye closure”, the “Blepharoptosis, shell temperature and “out-of-circle” ratio compared with Compound I-1 (in words)” value (C57BL/6 mice [1]; 10 mg/kg) was “significantly improved effect” and the “Improving akinesia” value (C57BL/6 mice [1]; 10 mg/kg) was “better effects”. For the same compound, the “Change in the shell temperature (T ° C.)” value (C57BL/6 mice [1]; [6]) was 30.20 ± 0.95 °C, the Degree of eye-closure (C57BL/6 mice [1]; [7]) was 1.40 ± 0.97 and the responders at 10 mg/kg (C57BL/6 mice [1]; [8]) was 50%. The “Anti-depression effect compared with the pharmacologic effect of I-1 (in words)” value (mice) was “increased to some degree”, the “Effect on autonomic activity” value (C57BL/6 mice [3]) was “had no effect” and the “Number of Autonomic activity (time)” value (C57BL/6 mice [3]; Experiment 2) was 86.60 ± 23.08 time. For the same compound, the “Effect on immobility time in tail suspension test (in words)” value (C57BL/6 mice [4]) was “reduce the immobility time of the mice in tail suspension test significantly; also recorded: significantly shorten the immobility time”.

With `CC(C)CNC(=O)c1cc2c(c(C(F)(F)F)c1)OCO2` [Compound I-12, N-isobutyl-5-trifluoromethyl-3,4-methylenedioxy benzamide] the “Blepharoptosis, “out-of-circle” ratio and shell temperature after reserpine (effect in words)” value (C57BL/6 mice [1]; 10 mg/kg intragastric 7 days) was “remarkably improve; also recorded: antagonizing the decrease of shell temperature, akinesia and improving the degree of eye closure”, the “Blepharoptosis, shell temperature and “out-of-circle” ratio compared with Compound I-1 (in words)” value (C57BL/6 mice [1]; 10 mg/kg) was “significantly improved effect” and the “Improving akinesia” value (C57BL/6 mice [1]; 10 mg/kg) was “better effects”. The “Change in the shell temperature (T ° C.)” value (C57BL/6 mice [1]; [6]) was 30.65 ± 1.16 °C, the Degree of eye-closure (C57BL/6 mice [1]; [7]) was 1.50 ± 1.18 and the responders at 10 mg/kg (C57BL/6 mice [1]; [8]) was 70%. For the same compound, the “Anti-depression effect compared with the pharmacologic effect of I-1 (in words)” value (mice) was “increased to some degree”, the “Effect on autonomic activity” value (C57BL/6 mice [3]) was “had no effect” and the “Number of Autonomic activity (time)” value (C57BL/6 mice [3]; Experiment 2) was 93.20 ± 19.54 time. The “Effect on immobility time in tail suspension test (in words)” value (C57BL/6 mice [4]) was “reduce the immobility time of the mice in tail suspension test significantly; also recorded: significantly shorten the immobility time”.
